Peptide text beside a SMILES is read from it.
Columns and labels:
[1] = ANTS/DPX liposome leakage assay; details: for Peptide Concentration-induced 50 % ANTS/DPX leakage at pH 4.8 (L/P), 3POPC/1POPG Vesicle / Peptide Concentration-induced 50 % ANTS/DPX leakage at pH 4.8 (L/P), POPC Vesicle / Peptide Concentration-induced 50 % ANTS/DPX leakage at pH 7.4 (L/P), 3POPC/1POPG Vesicle / Peptide Concentration-induced 50 % ANTS/DPX leakage at pH 7.4 (L/P), POPC Vesicle: 0.5 mM vesicles, peptide 0-20 µM, 3 h incubation, lipid per peptide; for Peptide Concentration-induced 50 % ANTS/DPX leakage at pH 4.8 (L/P), 3POPC/1POPG Vesicle / Peptide Concentration-induced 50 % ANTS/DPX leakage at pH 4.8 (L/P), POPC Vesicle: HCl-adjusted PBS 1X pH 4.8; for Peptide Concentration-induced 50 % ANTS/DPX leakage at pH 7.4 (L/P), 3POPC/1POPG Vesicle / Peptide Concentration-induced 50 % ANTS/DPX leakage at pH 7.4 (L/P), POPC Vesicle: PBS 1X pH 7.4, high ratio = more potent
Procedure, shortened: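 The value is the lipid-to-peptide ratio giving 50% ANTS/DPX release, with fluorescence (350/510 nm) read after 3 h and scaled to 10% Triton as full leakage. Peptides were titrated into 0.5 mM LUVs of POPC or 3POPC/1POPG (0.1 µm, free dye removed by gel filtration) in PBS at pH 7.4 or 4.8.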

[2] = tested on: U2OS; assay type: cell-based, human; details: 72 h
[3] = Tryptophan fluorescent binding assay; details: tryptophan fluorescence; 50 µM peptide, lipid titrated 0-5000 µM; phosphate buffered saline 1X, pH 7.4; values as lipid per peptide
Procedure, shortened: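 Peptides at 50 µM were incubated for 1 h with increasing amounts of 3:1 POPC:POPG unilamellar vesicles in 1X phosphate buffered saline, pH 7.4. Tryptophan emission (300–450 nm, excitation 280 nm) was recorded on a Cytation 5 multi-mode reader. The lipid concentration giving 50 % peptide binding was determined and reported as a lipid-to-peptide ratio.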

[4] = tested on: MCF‐10A; test: cells; assay type: cell-based, human; details: 72 h
Source text: (§1) […], and MCF-10A cells were maintained in MEGM with supplements and growth factors bovine pituitary extract, hydrocortisone, human epidermal growth factor, insulin, and gentamicin/amphotericin-B.

[5] = tested on: HMLER; test: cells; assay type: cell-based, human; details: 72 h
Source text: as §1

[6] = tested on: HMLER‐shEcad; test: cells; assay type: cell-based, human; details: 72 h
Source text: as §1

[7] = tested on: HEK293T; test: cells; assay type: cell-based, human; details: 72 h

| SMILES | Peptide Concentration-induced 50 % ANTS/DPX leakage at pH 4.8 (L/P), 3POPC/1POPG Vesicle [1] [L/P] | Peptide Concentration-induced 50 % ANTS/DPX leakage at pH 4.8 (L/P), POPC Vesicle [1] [L/P] | Peptide Concentration-induced 50 % ANTS/DPX leakage at pH 7.4 (L/P), 3POPC/1POPG Vesicle [1] [L/P] | Peptide Concentration-induced 50 % ANTS/DPX leakage at pH 7.4 (L/P), POPC Vesicle [1] [L/P] | IC50 [2] [µM] | Lipid Concentration-induced 50% Peptide Binding (L/P), 3POPC/1POPG Vesicle [3] [L/P] | Lipid Concentration-induced 50% Peptide Binding (L/P), POPC Vesicle [3] [L/P] | IC50 [4] [µM] | IC50 [5] [µM] | IC50 [6] [µM] | IC50 [7] [µM] | change of ANTS/DPX dye leakage / liposome selectivity at pH 4.8 ([1]; pH = 4.8 compared with physiological pH, anionic versus neutral liposomes) |
| --- | --- | --- | --- | --- | --- | --- | --- | --- | --- | --- | --- | --- |
| CC(C)C[C@H](NC(=O)CN)C(=O)N[C@@H](CC(C)C)C(=O)N[C@@H](CCC(=O)O)C(=O)N[C@@H](CC(C)C)C(=O)N[C@@H](CC(C)C)C(=O)N[C@@H](CCCCN)C(=O)N[C@@H](CC(C)C)C(=O)N[C@@H](CC(C)C)C(=O)N[C@@H](CC(C)C)C(=O)N[C@@H](CCC(=O)O)C(=O)N[C@@H](C)C(=O)N[C@@H](C)C(=O)NCC(=O)N[C@@H](Cc1c[nH]c2ccccc12)C(N)=O [EKE] (H-GLLELLKLLLEAAGW-NH2) | 438 | 75 | 657 | 738 | 8 ± 0.71 | 1.63 | 2.75 | 8.8 | 1.8 ± 0.28 | 1.3 ± 0.14 | 5.15 ± 0.21 | – |
| CC(C)C[C@H](NC(=O)CN)C(=O)N[C@@H](CC(C)C)C(=O)N[C@@H](Cc1c[nH]cn1)C(=O)N[C@@H](CC(C)C)C(=O)N[C@@H](CC(C)C)C(=O)N[C@@H](CCC(=O)O)C(=O)N[C@@H](CC(C)C)C(=O)N[C@@H](CC(C)C)C(=O)N[C@@H](CC(C)C)C(=O)N[C@@H](Cc1c[nH]cn1)C(=O)N[C@@H](C)C(=O)N[C@@H](C)C(=O)NCC(=O)N[C@@H](Cc1c[nH]c2ccccc12)C(N)=O [HEH] (H-GLLHLLELLLHAAGW-NH2) | 24 | 173 | 505 | 995 | 106 ± 14 | 3.50 | 0.88 | > 200 | 28.6 ± 10.8 | 11 ± 1.06 | 8.8 ± 1.7 | increased selectivity for neutral bilayers |
| CC(C)C[C@H](NC(=O)CN)C(=O)N[C@@H](CC(C)C)C(=O)N[C@@H](CC(=O)O)C(=O)N[C@@H](CC(C)C)C(=O)N[C@@H](CC(C)C)C(=O)N[C@@H](CCCCN)C(=O)N[C@@H](CC(C)C)C(=O)N[C@@H](CC(C)C)C(=O)N[C@@H](CC(C)C)C(=O)N[C@@H](Cc1c[nH]cn1)C(=O)N[C@@H](C)C(=O)N[C@@H](C)C(=O)NCC(=O)N[C@@H](Cc1c[nH]c2ccccc12)C(N)=O [DKH] (H-GLLDLLKLLLHAAGW-NH2) | 58 | 41 | 274 | 614 | 21.1 ± 3.01 | 0.46 | 10.00 | 7.05 ± 0.21 | 3.45 ± 0.07 | 2.8 ± 0.28 | 6.15 ± 1.34 | – |
| CC(C)C[C@H](NC(=O)CN)C(=O)N[C@@H](CC(C)C)C(=O)N[C@@H](Cc1c[nH]cn1)C(=O)N[C@@H](CC(C)C)C(=O)N[C@@H](CC(C)C)C(=O)N[C@@H](CCC(=O)O)C(=O)N[C@@H](CC(C)C)C(=O)N[C@@H](CC(C)C)C(=O)N[C@@H](CC(C)C)C(=O)N[C@@H](CCC(=O)O)C(=O)N[C@@H](C)C(=O)N[C@@H](C)C(=O)NCC(=O)N[C@@H](Cc1c[nH]c2ccccc12)C(N)=O [HEE] (H-GLLHLLELLLEAAGW-NH2) | 122 | 100 | 792 | 876 | 47.5 ± 11 | 0.50 | 0.58 | 58 ± 41 | 6.5 ± 0.71 | 4.95 ± 0.49 | 10.2 ± 0.2 | – |
| CC(C)C[C@H](NC(=O)CN)C(=O)N[C@@H](CC(C)C)C(=O)N[C@@H](Cc1c[nH]cn1)C(=O)N[C@@H](CC(C)C)C(=O)N[C@@H](CC(C)C)C(=O)N[C@@H](CCCCN)C(=O)N[C@@H](CC(C)C)C(=O)N[C@@H](CC(C)C)C(=O)N[C@@H](CC(C)C)C(=O)N[C@@H](Cc1c[nH]cn1)C(=O)N[C@@H](C)C(=O)N[C@@H](C)C(=O)NCC(=O)N[C@@H](Cc1c[nH]c2ccccc12)C(N)=O [HKH] (H-GLLHLLKLLLHAAGW-NH2) | 47 | 193 | 274 | 1077 | 18.9 ± 1.24 | 0.38 | 0.18 | 6.1 | 3.45 ± 0.21 | 3.1 ± 0.57 | 5.7 ± 0.99 | – |
| CC(C)C[C@H](NC(=O)CN)C(=O)N[C@@H](CC(C)C)C(=O)N[C@@H](CC(=O)O)C(=O)N[C@@H](CC(C)C)C(=O)N[C@@H](CC(C)C)C(=O)N[C@@H](CCC(=O)O)C(=O)N[C@@H](CC(C)C)C(=O)N[C@@H](CC(C)C)C(=O)N[C@@H](CC(C)C)C(=O)N[C@@H](CCC(=O)O)C(=O)N[C@@H](C)C(=O)N[C@@H](C)C(=O)NCC(=O)N[C@@H](Cc1c[nH]c2ccccc12)C(N)=O [DEE] (H-GLLDLLELLLEAAGW-NH2) | 164 | 110 | 597 | 644 | 61 ± 1.41 | 0.38 | 0.63 | 8.4 ± 1.56 | 5.55 ± 0.35 | 6.05 ± 2.76 | 9.91 ± 0.44 | – |
| CC(C)C[C@H](NC(=O)CN)C(=O)N[C@@H](CC(C)C)C(=O)N[C@@H](Cc1c[nH]cn1)C(=O)N[C@@H](CC(C)C)C(=O)N[C@@H](CC(C)C)C(=O)N[C@@H](Cc1c[nH]cn1)C(=O)N[C@@H](CC(C)C)C(=O)N[C@@H](CC(C)C)C(=O)N[C@@H](CC(C)C)C(=O)N[C@@H](Cc1c[nH]cn1)C(=O)N[C@@H](C)C(=O)N[C@@H](C)C(=O)NCC(=O)N[C@@H](Cc1c[nH]c2ccccc12)C(N)=O [HHH] (H-GLLHLLHLLLHAAGW-NH2) | 50 | 173 | 469 | 1133 | 185 ± 7 | 0.82 | 0.46 | 79 ± 11.3 | 21.1 ± 6.93 | 9.5 ± 0.99 | 30.6 ± 4.81 | – |
| CC(C)C[C@H](NC(=O)CN)C(=O)N[C@@H](CC(C)C)C(=O)N[C@@H](Cc1c[nH]cn1)C(=O)N[C@@H](CC(C)C)C(=O)N[C@@H](CC(C)C)C(=O)N[C@@H](Cc1c[nH]cn1)C(=O)N[C@@H](CC(C)C)C(=O)N[C@@H](CC(C)C)C(=O)N[C@@H](CC(C)C)C(=O)N[C@@H](CCCCN)C(=O)N[C@@H](C)C(=O)N[C@@H](C)C(=O)NCC(=O)N[C@@H](Cc1c[nH]c2ccccc12)C(N)=O [HHK] (H-GLLHLLHLLLKAAGW-NH2) | 111 | 149 | 160 | 1133 | 12.7 ± 1.91 | 0.20 | 0.68 | 5.6 ± 0.14 | 3.15 ± 0.07 | 1.75 ± 0.21 | 5.25 ± 1.48 | – |
| CC(C)C[C@H](NC(=O)CN)C(=O)N[C@@H](CC(C)C)C(=O)N[C@@H](Cc1c[nH]cn1)C(=O)N[C@@H](CC(C)C)C(=O)N[C@@H](CC(C)C)C(=O)N[C@@H](CCCCN)C(=O)N[C@@H](CC(C)C)C(=O)N[C@@H](CC(C)C)C(=O)N[C@@H](CC(C)C)C(=O)N[C@@H](CCCCN)C(=O)N[C@@H](C)C(=O)N[C@@H](C)C(=O)NCC(=O)N[C@@H](Cc1c[nH]c2ccccc12)C(N)=O [HKK] (H-GLLHLLKLLLKAAGW-NH2) | 106 | 106 | 90 | 657 | 12.23 ± 0.11 | 0.14 | 0.18 | 2.18 ± 0.39 | 3.4 ± 0.71 | 2.6 ± 0.42 | 9.5 ± 0.99 | – |
